From ChEMBL document CHEMBL1148656, “Synthesis, SAR exploration, and X-ray crystal structures of factor XIa inhibitors containing an alpha-ketothiazole arginine” (Bioorg Med Chem Lett, 2006)

The molecules below were run against Coagulation factor XI (Homo sapiens, UniProt P03951).
Chain of Coagulation factor XI (P03951 19-387 limits assumed): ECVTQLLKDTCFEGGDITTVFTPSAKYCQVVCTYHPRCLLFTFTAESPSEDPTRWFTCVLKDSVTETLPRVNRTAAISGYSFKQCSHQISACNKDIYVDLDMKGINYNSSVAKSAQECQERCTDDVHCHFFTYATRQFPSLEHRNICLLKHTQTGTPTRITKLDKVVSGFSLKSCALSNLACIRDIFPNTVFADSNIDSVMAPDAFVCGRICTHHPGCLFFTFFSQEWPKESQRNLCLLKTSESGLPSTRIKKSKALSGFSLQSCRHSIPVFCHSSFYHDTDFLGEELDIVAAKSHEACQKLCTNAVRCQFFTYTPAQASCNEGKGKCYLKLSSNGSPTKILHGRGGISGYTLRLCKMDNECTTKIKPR
Chain of Coagulation factor XI (P03951 388-625 limits assumed): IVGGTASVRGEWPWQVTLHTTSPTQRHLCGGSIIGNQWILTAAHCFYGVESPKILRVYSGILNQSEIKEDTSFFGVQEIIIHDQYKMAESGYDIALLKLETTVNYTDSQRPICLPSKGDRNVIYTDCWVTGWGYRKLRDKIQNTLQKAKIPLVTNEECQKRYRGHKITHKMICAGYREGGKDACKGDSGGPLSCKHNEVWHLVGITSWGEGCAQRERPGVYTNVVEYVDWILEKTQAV
An IC50 of 37.9 µM was found for `NC(N)=NCCC[C@H](NC(=O)Cc1ccc(Cl)c(Cl)c1)C(=O)c1nccs1` in this work.
An IC50 of 0.956 µM was found for `CC(C)[C@H](NC(=O)[C@H](O)c1cccc(F)c1)C(=O)N[C@@H](CCCN=C(N)N)C(=O)c1nccs1` in this work.
An IC50 of 0.116 µM was found for `CC(C)[C@H](NC(=O)[C@H](O)c1cccc(Cl)c1)C(=O)N[C@@H](CCCN=C(N)N)C(=O)c1nccs1` in this work.
An IC50 of 250 µM was found for `N=C(N)NCCC[C@H](NS(=O)(=O)c1cccc2ccccc12)C(=O)c1nccs1` in this work.
An IC50 of 0.713 µM was found for `CC(C)[C@H](NC(=O)N[C@@H]1C[C@@H]2C[C@H]([C@H]1C)C2(C)C)C(=O)N[C@@H](CCCN=C(N)N)C(=O)c1nccs1` in this work.
An IC50 of 5.9 µM was found for `N=C(N)NCCC[C@H](NC(=O)c1cc(F)cc2c1OCOC2)C(=O)c1nccs1` in this work.
An IC50 of 0.48 µM was found for `CC(C)[C@H](NC(=O)NCc1ccc(Cl)c(Cl)c1)C(=O)N[C@@H](CCCN=C(N)N)C(=O)c1nccs1` in this work.
An IC50 of 2.25 µM was found for `NC(N)=NCCC[C@H](NC(=O)c1cccc2ccccc12)C(=O)c1nccs1` in this work.
An IC50 of 3.31 µM was found for `CC(C)[C@H](NC(=O)N[C@H]1C[C@H]2C[C@@H]([C@@H]1C)C2(C)C)C(=O)N[C@@H](CCCN=C(N)N)C(=O)c1nccs1` in this work.
For `NC(N)=NCCC[C@H](NC(=O)Cc1cccc2ccccc12)C(=O)c1nccs1`, the IC50 was > 250 µM.
An IC50 of 86 µM was found for `N=C(N)NCCC[C@H](NS(=O)(=O)c1ccc2ccccc2c1)C(=O)c1nccs1` in this work.
An IC50 of 6.22 µM was found for `CC(C)[C@H](CC(=O)NCc1ccc(Cl)c(Cl)c1)C(=O)N[C@@H](CCCN=C(N)N)C(=O)c1nccs1` in this work.
For `N=C(N)NCCC[C@H](NC(=O)c1ccc2ccccc2c1)C(=O)c1nccs1`, the IC50 was > 200 µM.
An IC50 of 123 µM was found for `CC(C)CC(=O)N[C@@H](CCCN=C(N)N)C(=O)c1nccs1` in this work.
